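Method: 48-hour compound exposure of cells in 96-well plates, five concentrations, linear interpolation of endpoints. GI50 is the concentration that inhibits growth by half.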 Active and inactive are the calls of the source. Cut-off read from the data, not from the text of the source: active = GI50 up to about 1.1 µM and inactive = higher.
Columns and labels:
Experiment in all cases: NCI anticancer screen, dose series, 48 h
SNB-19 = test system: SNB-19
OVCAR-8 = test system: OVCAR-8
NCI-H522 = test system: NCI-H522
T47D = test system: T47D
SW-620 = test system: SW-620
NCI-H23 = test system: NCI-H23
MDA-MB-435 = test system: MDA-MB-435
PC-3 = test system: PC-3
786-0 = test system: 786-0
SF-539 = test system: SF-539
HL-60 = test system: HL-60
SK-MEL-28 = test system: SK-MEL-28
HOP-62 = test system: HOP-62
RXF 393 = test system: RXF 393
U-251 = test system: U-251
SK-MEL-2 = test system: SK-MEL-2
K562 = test system: K562
OVCAR-3 = test system: OVCAR-3
IGROV-1 = test system: IGROV-1
OVCAR-5 = test system: OVCAR-5
TK-10 = test system: TK-10
UACC-257 = test system: UACC-257
SF-295 = test system: SF-295
UACC-62 = test system: UACC-62
NCI/ADR-RES = test system: NCI/ADR-RES
HCC 2998 = test system: HCC 2998
COLO 205 = test system: COLO 205
SNB-75 = test system: SNB-75
MOLT-4 = test system: MOLT-4
NCI-H226 = test system: NCI-H226
EKVX = test system: EKVX
OVCAR-4 = test system: OVCAR-4
CCRF-CEM = test system: CCRF-CEM
HCT-15 = test system: HCT-15
A549 = test system: A549
ACHN = test system: ACHN
NCI-H460 = test system: NCI-H460
SF-268 = test system: SF-268
Malme-3M = test system: Malme-3M
MCF7 = test system: MCF7
HT-29 = test system: HT-29
A498 = test system: A498
KM12 = test system: KM12
DU-145 = test system: DU-145
HCT-116 = test system: HCT-116
SN12C = test system: SN12C
UO-31 = test system: UO-31
CAKI-1 = test system: CAKI-1
HOP-92 = test system: HOP-92
Hs-578T = test system: Hs-578T
MDA-MB-231 = test system: MDA-MB-231
SK-MEL-5 = test system: SK-MEL-5
RPMI-8226 = test system: RPMI-8226
M14 = test system: M14
BT-549 = test system: BT-549
LOX IMVI = test system: LOX IMVI

O=C1CCc2c3c(c4c([nH]c5ccccc54)c2CC1)C(=O)NC3=O
GI50 (SNB-19): 3.94 µM (inactive) | GI50 (OVCAR-8): 6.87 µM (inactive) | GI50 (NCI-H522): 0.766 µM (active) | GI50 (T47D): 1.46 µM (inactive) | GI50 (SW-620): 0.815 µM (active) | GI50 (NCI-H23): 8.93 µM (inactive) | GI50 (MDA-MB-435): 1.31 µM (inactive) | GI50 (PC-3): 2.05 µM (inactive) | GI50 (786-0): 11.7 µM (inactive) | GI50 (SF-539): 5.36 µM (inactive) | GI50 (HL-60): 0.671 µM (active) | GI50 (SK-MEL-28): 3.14 µM (inactive) | GI50 (HOP-62): 12.3 µM (inactive) | GI50 (RXF 393): 1.91 µM (inactive) | GI50 (U-251): 4.55 µM (inactive) | GI50 (SK-MEL-2): 2.7 µM (inactive) | GI50 (K562): 1.19 µM (inactive) | GI50 (OVCAR-3): 3.51 µM (inactive) | GI50 (IGROV-1): 0.893 µM (active) | GI50 (OVCAR-5): 34.1 µM (inactive) | GI50 (TK-10): 10.2 µM (inactive) | GI50 (UACC-257): 5.05 µM (inactive) | GI50 (SF-295): 6.01 µM (inactive) | GI50 (UACC-62): 4.45 µM (inactive) | GI50 (NCI/ADR-RES): 16.4 µM (inactive) | GI50 (HCC 2998): 27.9 µM (inactive) | GI50 (COLO 205): 0.63 µM (active) | GI50 (SNB-75): 0.0265 µM (active) | GI50 (MOLT-4): 0.774 µM (active) | GI50 (NCI-H226): 3.32 µM (inactive) | GI50 (EKVX): 11.1 µM (inactive) | GI50 (OVCAR-4): 2.08 µM (inactive) | GI50 (CCRF-CEM): 2 µM (inactive) | GI50 (HCT-15): 2.7 µM | GI50 (A549): 7.05 µM (inactive) | GI50 (ACHN): 1.01 µM (active) | GI50 (NCI-H460): 1.58 µM (inactive) | GI50 (SF-268): 7.85 µM (inactive) | GI50 (Malme-3M): 3.48 µM (inactive) | GI50 (MCF7): 2.97 µM (inactive) | GI50 (HT-29): 3.53 µM (inactive) | GI50 (A498): 2.22 µM (inactive) | GI50 (KM12): 0.0942 µM (active) | GI50 (DU-145): 9.98 µM (inactive) | GI50 (HCT-116): 2.05 µM (inactive) | GI50 (SN12C): 4.32 µM (inactive) | GI50 (UO-31): 0.998 µM (active) | GI50 (CAKI-1): 2.02 µM (inactive) | GI50 (HOP-92): 18.6 µM (inactive) | GI50 (Hs-578T): 2.08 µM (inactive) | GI50 (MDA-MB-231): 25.3 µM (inactive) | GI50 (SK-MEL-5): 1.91 µM (inactive) | GI50 (RPMI-8226): 3.38 µM (inactive) | GI50 (M14): 5.05 µM (inactive) | GI50 (BT-549): 7.46 µM (inactive) | GI50 (LOX IMVI): 1.18 µM (inactive)
